This note sets out measurements from patent US20150292030A1, “METHODS OF CHARACTERIZING AND TREATING MOLECULAR SUBSET OF MUSCLE-INVASIVE BLADDER CANCER” (BOARD OF REGENTS, THE UNIVERSITY OF TEXAS SYSTEM, priority 2012, published 2015).

Test [1] relates to human bladder cancer cell lines. Nature of the test: Proliferation (MTT) assay of BGJ398 on a panel of 30 human bladder cancer cell lines. Type of test: cell-based. The conditions noted are these: lines SW780, UC1, RT112, RT4 and UC14; FIG. 6. From the text: FIG. 6. Proliferation (MTT) assay testing effect of BGJ398 on human bladder cancer cell lines.
To test this possibility, the inventors examined the effects of the FGFR-selective inhibitor BGJ398 on proliferation in the inventor's panel of 30 human bladder cancer cell lines using MTT assays.

Test [2] relates to muscle-invasive bladder cancer. Nature of the test: Pathological response to neoadjuvant chemotherapy at cystectomy by cluster, discovery cohort. Type of test: in vivo, human. Particulars: cluster 2 (p53-like); FIG. 1D. From the text: Tumors and clinical data were obtained from the MD Anderson genitourinary cancers research database. Fresh frozen tissues were obtained from the SPORE Tissue Core. Of note, all patients had previously signed informed consent allowing collection of their tissue and of their clinical data in the genitourinary research database. […] Patients were classified as muscle invasive for tumor growth into the muscularis propria; otherwise, they were classified as non-muscle invasive. Total RNA from human specimens were isolated using mirVana miRNA isolation kit (Ambion, Inc).
Presurgical (neoadjuvant) cisplatin-based chemotherapy is the current standard-of-care for high-risk muscle-invasive bladder cancer. […] To examine the relationship between the 3 molecular subsets and chemotherapy sensitivity, the inventors identified 18 patients within their discovery cohort that had received neoadjuvant chemotherapy and compared the pathological response rates within each cluster. Strikingly, whereas over half of the basal/cluster 1 (3/5) and luminal/cluster 3 (4/6) tumors responded to chemotherapy, none (0/7) of the p53-like cluster 2 tumors was downstaged in this initial cohort (Table 3). […] Gene expression profiling classified 3 of the tumors as basal, 4 as luminal, and 9 as p53-like (FIG. 7). […]

Take `CCN1CCN(c2ccc(Nc3cc(N(C)C(=O)Nc4c(Cl)c(OC)cc(OC)c4Cl)ncn3)cc2)CC1` [BGJ398]: the “drug sensitivity of proliferation (MTT)” value in test [1] is reported as “most drug-sensitive”.

Take `N.N.[Cl][Pt][Cl]` [cisplatin]: in test [2], the observed cisplatin resistance result is on record as “resistance”.
